In patent publication US20160375439A1, “Apparatus and Methods for Single-Particle Isolation and Single-Particle Measurement” (priority 2015, published 2016):
Where “and” joins values, the source holds several entries; their conditions need not be identical. Equal entries are not always repeated. Entries after “also recorded” stand apart in the source; their conditions may differ. Where two headings read alike, the source gives them in different places.

Assays:
22Rv1 cells [1] = assay: Trypan blue treatment of single 22Rv1 cell (cell viability); assay type: cell-based, human
Source text: This dye was used to check if the cell membrane was compromised after the exposure to the various conditions, as a measure of cell viability.

WBC [2] = assay: Single-cell DNR accumulation in white blood cell (WBC); assay type: cell-based, mouse; details: 35 μM DNR alone, FIG. 12c
Method: (§1) The procedure for drug accumulation measurement has previously been reported.^45-47 Briefly, the anti-cancer drug (i.e., DNR or OG-PTX) was introduced via Reservoir D and drug accumulation of the anti-cancer drug was measured in the single cell. […] DNR was first used for drug accumulation measurement as it had inherent fluorescence (λex=470 nm; λem=585 nm). Thereafter, paclitaxel that was fluorescently labelled by Oregon Green was examined (λex=492 nm; λem=524 nm), since paclitaxel was the commonly-used anti-cancer drug for prostate cancer treatment.
On the other hand, in a similar experiment conducted on the WBC (FIG. 12c), the cell was not stained by the anti-Pgp antibody, indicating it is not a PCa cell.

22Rv1 cells [3] = assay type: cell-based, human; details: for a2 (pre-exponential factor, normalized fluorescence plateau) / b2: same single cell
Source text: We previously reported that a mono-exponential drug uptake model could be applied to fit the experimental data in order to compare drug accumulation kinetics in MDR cells.^45 The following equation was used to describe the time-dependent change of single-cell DNR accumulation:
where x is time; y is the normalized fluorescence signal obtained by dividing the intracellular concentrations by the extracellular DNR concentrations; a is the y-axis value that will reach when the time x is sufficiently large (this value is called pre-exponential factor that is related to the cell permeability coefficient p of drug uptake and the pump rate k for drug efflux); b, which is the half time when y reaches 50% of a, is given by
The curve fitting analysis was performed on the normalized fluorescence using the SAS software. […] Because of the initially large drug concentration gradient across the cell membrane, the initial cellular accumulation rate of drugs is very fast,^65 and this fast rate is shown as a short half time of ˜106 s in FIG. 13a. When the concentration gradient became smaller, the drug uptake rate became slower; ultimately, the signal reached a plateau as the drug uptake rate was close to the drug efflux rate. In the presence of FTC, drug accumulation increased (FIG. 13b). This significant drug enhancement is believed to be caused by the action of FTC on the ABCG2 drug efflux pump.
In a similar manner, an experiment was conducted by treating a 22Rv1 cell by 3 μM of OG-PTX, followed by OG-PTX-loaded FTC40 of μM, as shown in FIGS. 13c and 13d.

22Rv1 cells [4] = assay: On-chip drug accumulation measurement (fluorescence) of anti-cancer drug alone in a single 22Rv1 cell; assay type: cell-based, human; details: for corrected signal of DNR (Fi) / corrected signal of OG-PTX: single 22Rv1 cell; for corrected signal of DNR (Fi): FIG. 8a; for corrected signal of OG-PTX: FIG. 8b
Source text: After the cell was kept stationary, the medium was introduced into Reservoir D to induce a liquid flow to make sure the cell was stationary before running the drug accumulation experiment. An optical detection system was employed for simultaneous fluorescence measurement and bright-field imaging.^47,58
as §1
Drug accumulation was conducted in Chamber 2. In the first step, accumulation of the anti-cancer drug (i.e., DNR or OG-PTX) in the MDR single cell was measured in the absence of MDR inhibitor (FIG. 7a). The 22Rv1 cells naturally express the ABCG2 transporter, which actively transports drug molecules out of the cell.^50 As DNR is a well-known ABCG2 substrate,^51 the initial accumulation of DNR without the influence of any MDR inhibitor was low. […] When the cell was inside the window, the total fluorescent intensity (Ft) was measured; whereas the background (Fb) was measured when the cell was outside the window.^58, 59 Subtraction of the background (Fb) from the total fluorescent intensity (Ft) gave a corrected signal (Fi) representing the drug concentration inside the single prostate cancer cell.^45, 59
The experiment was continued using DNR at different concentrations (3.5, 7, 14, 35, 70, 350 μM) in order to determine the reasonable initial signal of drug accumulation in the cell. […] The signal obtained from DNR at 35 μM provided the optimal initial value. Similarly, other experiments were conducted on a single 22Rv1 cell by treating the cell with OG-PTX at different concentrations (0.3, 1.5, 3, 6, 30 μM). […] Therefore, the optimal fluorescence signal was obtained after treating the single cell with 3 μM of OG-PTX. After the optimization experiment for drug concentration, subsequent experiments were carried out with 35 μM of DNR or 3 μM of OG-PTX. […] A similar experiment was conducted on another single 22Rv1 cell by adding 3 μM of OG-PTX, indicating saturation in the fluorescent intensity (FIG. 8d).

22Rv1 cells [5] = assay: Effect of MDR inhibitors on DNR accumulation in single 22Rv1 cell; assay type: cell-based, human
WBC [6] = assay: Trypan blue treatment of WBC; assay type: cell-based, mouse; details: after high DNR accumulation, FIG. 12 f3
22Rv1 cells [7] = assay type: cell-based, human
Method: as §1
As shown in FIG. 11a (solid line), the fluorescence signal of the DNR was 630±77. After adding different concentrations of FTC, the signals were enhanced. Similar experiments were performed by adding different concentrations of OG-PTX (FIG. 11a: dashed line). Therefore, the optimal fluorescence signals were obtained after treating the single cells with both anti-cancer drugs in the presence of 40 μM of FTC.
Obvious enhancement in fluorescent intensity (at 585 nm) was observed (i.e., 2.8±0.3, 4.4±0.5, 4.9±0.5 fold-increase (p<0.0001). After washing the cell, anti-P-gp was applied. The fluorescence signal (524 nm) increased from 265±70 to 615±72 cps, confirming that the PCa cell was cancerous.
One of the key requirements for the effectiveness of chemotherapy is the sufficient delivery of chemotherapeutic drug into the cancer cell.^66-69 As mentioned, drug resistance due to MDR activity is due to the function of ABC transporters that reduce intracellular drug accumulation. […] Similar results were obtained after applying OG-PTX in the presence of same MDR inhibitors (FIG. 15a: black solid line & FIG. 15b: gray solid line) (3.0±0.2, 3.1±0.2, 3.1±0.2, and 2.9±0.2, 2.9±0.2, 3.0±0.2 of fold-increase, respectively). […] On the other hand, after accumulation of DNR in the presence of MDR inhibitors, DNR was more effectively retained in MDR cells following removal of MDR inhibitors, particularly FTC from single MDR-treated cell (FIG. 14b: black dashed line).

22Rv1 cells [8] = details: 22Rv1 cells treated by FTC (25 μM); cited from earlier work
leukemia cells = details: simultaneous administration of verapamil & CsA and MK-571; cited from earlier work
[9] = Step 2: 3 μM OG-PTX + 40 μM FTC

COc1cccc2c1C(=O)c1c(O)c3c(c(O)c1C2=O)C[C@@](O)(C(C)=O)C[C@@H]3O[C@H]1C[C@H](N)[C@H](O)[C@H](C)O1 [DNR, Daunorubicin]
cell viability by trypan blue (22Rv1 cells [1]; single 22Rv1 cell after 35 μM DNR, DEP capture and xenon lamp excitation, FIG. 9c): viable | trypan blue staining (cell membrane integrity) (22Rv1 cells [1]; single 22Rv1 cells after 35 μM DNR or 3 μM OG-PTX in the presence of 40 μM FTC, FIG. 13): no cell staining | DNR accumulation behaviour in WBC (WBC [2]): continued to rise; also recorded: continuous increase in drug accumulation | half time to reach the plateau (22Rv1 cells [3]; 35 μM DNR only, FIG. 13a): ~106 s | a1 (pre-exponential factor, normalized fluorescence plateau) (22Rv1 cells [3]; Step 1: 35 μM DNR only): 1.0±0.3 | b1 (22Rv1 cells [3]; Step 1: 35 μM DNR only): 0.010 ± 0.003 s⁻¹ | corrected signal of DNR (Fi) (22Rv1 cells [4]; 3.5 μM DNR): 100±37 cps | corrected signal of DNR (Fi) (22Rv1 cells [4]; 7 μM DNR): 290±39 cps | corrected signal of DNR (Fi) (22Rv1 cells [4]; 14 μM DNR): 260±41 cps | fold-increase in DNR accumulation (22Rv1 cells [4]; 35 μM DNR alone for 4000 s (negative control), three successive values, FIG. 14a dotted line): 1.1±0.1 fold and 1.2±0.1 fold | fold-increase in fluorescence (22Rv1 cells [4]; 35 μM DNR only (negative control), FIG. 9a bottom curve): 1.3±0.2 fold and 1.3 fold | corrected signal of DNR (Fi) (22Rv1 cells [4]; 35 μM DNR): 535±92 cps and 530±42 cps | corrected signal of DNR (Fi) (22Rv1 cells [4]; 70 μM DNR): 550±47 cps | corrected signal of DNR (Fi) (22Rv1 cells [4]; 350 μM DNR): 1280±50 cps | fluorescence signal of the DNR (22Rv1 cells [4]; before adding FTC, FIG. 11a solid line): 630±77 | fold-increase in fluorescent intensity (at 585 nm), DNR accumulation (22Rv1 cells [5]; single 22Rv1 cell isolated from WBCs, successive MDR inhibitor treatments not given, FIG. 12a): 3.3±0.3 fold and 4.5±0.5 fold and 5.4±0.5 fold | trypan blue staining of WBC (WBC [6]): staining by trypan blue

COc1ccc2c3c([nH]c2c1)[C@H](C=C(C)C)N1C(=O)[C@@H]2CCCN2C(=O)[C@@H]1C3 [FTC, fumitremorgin C]
fold-increase for OG-PTX accumulation, based on curve fitting (22Rv1 cells [7]; 3 μM OG-PTX + 40 μM FTC, FIG. 13): 2.4±0.4 fold | fold-increase in OG-PTX accumulation (22Rv1 cells [7]; 3 μM OG-PTX + 40 μM FTC, three successive values, FIG. 15a solid line): 3.0±0.2 fold and 3.1±0.2 fold | fold-increase in OG-PTX accumulation after removing inhibitor (22Rv1 cells [7]; 3 μM OG-PTX, FTC removed, three successive values, FIG. 15a dashed line): 2.7±0.2 fold and 1.65±0.2 fold and 1.4±0.2 fold | fold-increase in OG-PTX accumulation, average of 6 individual cell experiments (22Rv1 cells [7]; FTC, followed by CsA, then FTC+CsA on the same cell, FIG. 15c): 2.7±0.3 fold | half-time to reach plateau (22Rv1 cells [3]; 3 μM OG-PTX + 40 μM FTC, FIG. 13d): 24 s | half time to reach the plateau (22Rv1 cells [3]; 35 μM DNR + 40 μM FTC, FIG. 13b): 346 s | a2 (pre-exponential factor, normalized fluorescence plateau) (22Rv1 cells [3]; [9]): 2.4±0.4 | b2 (22Rv1 cells [3]; [9]): 0.003 ± 0.008 s⁻¹ | a2 (pre-exponential factor, normalized fluorescence plateau) (22Rv1 cells [3]; Step 2: 35 μM DNR + 40 μM FTC): 3.4±0.2 | b2 (22Rv1 cells [3]; Step 2: 35 μM DNR + 40 μM FTC): 0.004 ± 0.002 s⁻¹ | fold-increase for DNR accumulation, based on curve fitting (22Rv1 cells [5]; 35 μM DNR + 40 μM FTC, FIG. 13): 3.4±0.2 fold | fold-increase in DNR accumulation (22Rv1 cells [5]; 35 μM DNR + 40 μM FTC, after 1000 s of adding inhibitor, three successive values, FIG. 14a solid line): ~3.7±0.2 fold and ~3.8±0.2 fold | fold-increase in DNR accumulation after removing inhibitor (22Rv1 cells [5]; 35 μM DNR, FTC removed after 2000 s, three successive values, FIG. 14a dashed line): 3.8±0.2 fold and 3.2±0.2 fold and 2.7±0.2 fold | fold-increase in DNR accumulation signal (22Rv1 cells [5]; 35 μM DNR, after adding 40 μM FTC, FIG. 9a top curve): 3.5±0.3 fold | fold-increase in DNR accumulation, average of 6 individual cell experiments (22Rv1 cells [5]; FTC, followed by CsA, then FTC+CsA on the same cell, FIG. 14c): 3.7±0.4 fold | MDR inhibitor concentration giving the optimal fluorescence signal (22Rv1 cells [5]; single 22Rv1 cell, DNR and OG-PTX accumulation, FIG. 11): 40 µM | fold accumulation of D-luciferin (22Rv1 cells [8]): 2.0 fold

CN(C)C(=O)CCSC(SCCC(=O)O)c1cccc(/C=C/c2ccc3ccc(Cl)cc3n2)c1 (stereo not shown) [MK-571]
intracellular levels of [3H]-azacytidine (leukemia cells): increase

COc1ccc(CCN(C)CCCC(C#N)(c2ccc(OC)c(OC)c2)C(C)C)cc1OC (stereo not shown) [verapamil]
intracellular levels of [3H]-azacytidine (leukemia cells): increase

Oregon Green® 488-conjugated paclitaxel [OG-PTX]
fold-increase in fluorescent intensity (at 585 nm), OG-PTX accumulation (22Rv1 cells [7]; single 22Rv1 cell isolated from WBCs, successive MDR inhibitor treatments not given, FIG. 12b): 2.8±0.3 fold and 4.4±0.5 fold and 4.9±0.5 fold | half-time to reach plateau (22Rv1 cells [3]; 3 μM OG-PTX only, FIG. 13c): 98 s | a1 (pre-exponential factor, normalized fluorescence plateau) (22Rv1 cells [3]; Step 1: 3 μM OG-PTX only): 1.0±0.1 | b1 (22Rv1 cells [3]; Step 1: 3 μM OG-PTX only): 0.007 ± 0.006 s⁻¹ | corrected signal of OG-PTX (22Rv1 cells [4]; 0.3 μM OG-PTX): 60±48 cps | corrected signal of OG-PTX (22Rv1 cells [4]; 1.5 μM OG-PTX): 100±52 cps | fold-increase in OG-PTX accumulation (22Rv1 cells [4]; 3 μM OG-PTX alone for 4000 s (negative control), three successive values, FIG. 15a dotted line): 1.1±0.1 fold and 1.2±0.1 fold | corrected signal of OG-PTX (22Rv1 cells [4]; 3 μM OG-PTX): 510±88 cps and 500±55 cps | corrected signal of OG-PTX (22Rv1 cells [4]; 6 μM OG-PTX): 1300±56 cps | corrected signal of OG-PTX (22Rv1 cells [4]; 30 μM OG-PTX): 2900±72 cps
